Measured values from patent US8889723B2, “Aminoalkyloxazole and aminoalkylthiazolecarboxylic acid amides as regeneration-promoting substances for sensory organs and post-mitotic tissues” (EMC microcollections GmbH, priority 2010, dated 2014).
“Also recorded” adds a separate entry of the source.

Assays:
sensory hair cells = experiment: Ototoxic damage of sensory hair cells in organ culture; format: cell-based, mouse; conditions: 1 mM, within 24 hours
Protocol: (§1) After administration of the ototoxic aminoglycoside antibiotic neomycin (1 mM), ⅔of all sensory hair cells suffered cell death within 24 hours. Only in the apical regions of the cochlea, some sensory hair cells survived, the number of which declined further during the course of the experiment as a result of the initial damage. After removal of the neomycin from the medium, the remaining supportive cells could be cultivated further.

[1] = test system: differentiated otic epithelium islands from stem cells isolated from the postnatal organ of Corti; experiment: In vitro cell culture assay: proportion of Sox2-positive cells (dedifferentiation); format: cell-based, mouse; conditions: screening assay, FIG. 3; p<0.05, n=10
Protocol: (§2) First, starting with stem cells with otic development potential isolated from the postnatal organ of Corti of the mouse, typical cellular cluster “spheres” were grown in a suspension culture. Under culture conditions optimized compared to known processes (Oshima et al., 2007; Senn et al., 2007) in a DMEM/F12 medium (Dulbecco's Modified Eagle Medium) supplemented with B27 and N2, about 1600 solid spheres per organ of Corti could be generated from the stem cell culture with added FGF (fibroblast growth factor) and IGF (insulin-like growth factor) (FIG. 1H).
(§3) To this end, the cultivated otospheres were differentiated in a second step under adherent culture conditions on an ornithine/fibronectin surface to give monolayer epithelium islands relatively similar to the original sensory epithelium.
For screening, firstly the proportion of Sox2-positive cells in the in vitro culture was determined. Sox2 is a stem cell marker, which is also expressed during ontogenesis of the organ of Corti. It is thought to have an important role in the pluripotency of embryonal stem cells and during induction of pluripotent stem cells from differentiated cells (Takahashi and Yamanaka, 2006). Accordingly, Sox2 is an important marker, in particular in the context of an induced dedifferentiation/reprogramming of cells.

[2] = test system: differentiated otic epithelium islands from stem cells isolated from the postnatal organ of Corti; experiment: In vitro cell culture assay: BrdU-positive cells (proliferation), screening and dose/activity analysis; format: cell-based, mouse
Protocol: as §2, §3
If the expression of stem cell markers induced by the compounds is in the end also associated with an increased proliferation of the cells in culture was checked by quantification of the BrdU-positive cells. During substance administration the culture was incubated for 5 h with the thymidine analog BrdU. During the S phase of the cell cycle, cell division results in incorporation of BrdU. If one of the substances stimulates cell division, this can be detected and visualized with an antibody directed against BrdU.
In a dose/activity analysis, the optimum concentration range in which this compound unfolds its maximum regeneration biological effect in the cell culture was determined.
To this end, incorporation of BrdU in the stem cell-based in vitro cell culture assay was determined at 4 concentrations between 0.3 μM and 10 μM in the culture medium. […] From a concentration of 3 μM, the saturation level of about 9% BrdU-positive cells is already reached (FIG. 5).

[3] = test system: supportive cells of the organ of Corti; experiment: In vitro organ culture model: BrdU incorporation after neomycin damage; format: cell-based, mouse; conditions: 5 μM, 4 days, after neomycin (1 mM) damage, FIG. 6
From the text: To confirm the effects observed in the cell culture assay in the native organ, i.e., in situ in the complex cellular structure of the organ of Corti, use was made of a form of organ culture where the tissue to be cultivated, in the present case the entire inner ear of the mouse, was located in a rotating cylinder filled with culture medium (Hahn et al., 2008). Before the start of the experiment, the cochlea was opened basally and apically in the region of the scala tympani. In this manner, it was possible to minimize the effect of gravity and at the same time to achieve optimum gas and nutrient exchange between the tissue of the organ of Corti and the culture medium. Under these conditions, the explantate could be kept in culture for longer compared to a stationary culture.
as §1
BrdU was then added to the culture medium simultaneously with the compounds (5 μM), and after 4 days the proliferation was quantified by BrdU incorporation.

organ of Corti = experiment: In vivo administration after acoustic trauma: regeneration of sensory hair cells (BrdU, myosin VI, DAPI, Sox2 labelling); conditions: adult guinea pig, impulse noise damage, 200 μM in Alzet pump intracochlear over 6 weeks, FIG. 7
From the text: Acute acoustic damage resulting in a loss of sensory hair cells of the organ of Corti, in particular in the region of the outer sensory hair cells, was caused by impulse noise. The compound N-cyclohexyl-2-[1-amino-2-(1H-indol-3-yl)ethyl]α-azole-4-carboxylic acid amide (3) was then continuously administered locally from a miniosmotic pump (Alzet®), subcutaneously implanted, via choleostomy directly into the scala tympani of the cochlea. The dosage of the substance in the pump was correspondingly higher at 200 μM, taking into account an expected dilution effect in the perilymph.
Administration was over a period of 6 weeks, with a subsequent waiting interval of 2 weeks. In parallel, BrdU was administered via the drinking water or the miniosmotic pump to label proliferating cells in the organ of Corti.
After removal of the organ of Corti, immunohistochemical triple labelling with BrdU (cell division), myosin VI (sensory hair cells) and DAPI (staining of the nuclei) FIGS. 7A to 7E and also with Sox2 (pluripotent supportive cells) was carried out.

neomycin
proportion of all sensory hair cells that suffered cell death (sensory hair cells): ⅔

N[C@@H](Cc1c[nH]c2ccccc12)c1nc(C(=O)NC2CCCCC2)co1 [Compound 3, N-cyclohexyl-2-[1-amino-2-(1H-indol-3-yl)ethyl]oxazole-4-carboxylic acid amide]
proportion of Sox2-expressing cells compared with the differentiation control [1]: more than doubled; also recorded: significant positive results | BrdU incorporation in dose/activity analysis ([2]; 0.3 μM in culture medium, FIG. 5): no significant effect | BrdU incorporation in dose/activity analysis ([2]; 1 μM in culture medium, FIG. 5): the mean was already elevated | BrdU incorporation when concentration increased from 0.3 μM to 3 μM ([2]; adhesion culture, p<0.05, n=10, FIG. 5): increased to a significantly higher level | BrdU incorporation at concentrations higher than 3 μM ([2]; adhesion culture, up to 10 μM, FIG. 5): could not be increased any further | BrdU-positive cells, saturation level in dose/activity analysis ([2]; from 3 μM in culture medium, FIG. 5): about 9% | proportion of BrdU-positive cells (induced proliferation) ([2]; screening assay, 5 h incubation with BrdU, FIG. 4): 4.8% | BrdU incorporation, result in words ([2]; screening assay, 5 h incubation with BrdU, p<0.05, n=10): significant positive results | BrdU incorporation into supportive cells (proliferation) [3]: BrdU incorporation could be demonstrated in the furthest laterally orientated Deiter's cells; also recorded: new cells in the sense of a regeneration by cell division of supportive cells have been formed; also recorded: BrdU was incorporated into laterally orientated Deiter's cells | BrdU incorporation into supportive cells (proliferation) ([3]; listed as substance 33): BrdU was incorporated into individual inner phalangeal cells and inner border cells | regeneration of sensory hair cells based on cell division (BrdU labelling) (organ of Corti): BrdU-labelled supportive cells and sensory hair cells were preferably demonstrated in the regions of the organ of Corti damaged by acoustic trauma; also recorded: regeneration of sensory hair cells on the basis of cell divisions can be induced
